Experimental findings from ChEMBL document CHEMBL1201862, “PubChem BioAssay data set” (2004) are described below.

Activity calls are given as the source filed them.

Assay [1] concerns the target Histone-lysine N-methyltransferase NSD2 (Homo sapiens, UniProt O96028). It is filed as biochemical.
Assay [2] can be described thus: Counterscreen for […] of the human trace amine associated receptor 1 (TAAR1): Fluorescence-based cell-based high throughput dose response assay to identify nonselective Ga16 agonists. It is filed as functional. (In general: Counterscreens check selectivity or assay interference.)
Assay [3] has as its target T1, Trace amine-associated receptor 1 (Homo sapiens, UniProt Q96RJ0).
T1 sequence (Q96RJ0 whole entry): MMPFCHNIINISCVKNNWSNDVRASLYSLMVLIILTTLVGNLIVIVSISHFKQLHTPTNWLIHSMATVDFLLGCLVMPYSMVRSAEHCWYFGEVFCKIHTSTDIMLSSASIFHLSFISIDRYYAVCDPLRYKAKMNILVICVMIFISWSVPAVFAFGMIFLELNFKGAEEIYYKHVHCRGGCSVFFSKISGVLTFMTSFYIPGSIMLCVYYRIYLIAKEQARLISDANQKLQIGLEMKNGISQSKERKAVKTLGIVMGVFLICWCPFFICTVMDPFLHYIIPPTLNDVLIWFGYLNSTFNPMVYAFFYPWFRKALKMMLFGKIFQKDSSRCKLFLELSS
The assay is described as follows: Fluorescence-based cell-based high throughput dose response assay to identify antagonists of the human trace amine associated receptor 1 (TAAR1). Format: functional.

The nature of assay [4]: Counterscreen for antagonists of the human trace amine associated receptor 1 (hTAAR1): Fluorescence-based cell-based high throughput dose response assay to identify nonselective Ga16 antagonists. It is filed as functional.
Assay [5] has as its target T1, Trace amine-associated receptor 1. The experiment in a line: Counterscreen for antagonists of the human trace amine associated receptor 1 (hTAAR1): Fluorescence-based cell-based high throughput dose response assay to identify TAAR1 Agonists. It is filed as functional.
Assay [6] addresses Beta-lactamase (Salmonella choleraesuis (strain SC-B67), UniProt Q5J463). The experiment in a line: Epi-absorbance-based counterscreen for selective VIM-2 inhibitors: dose response biochemical high throughput screening assay to identify inhibitors of TEM-1 serine-beta-lactamase.
Assay [7] has as its target T2, Beta-lactamase (Pseudomonas aeruginosa, UniProt Q79MP6). The experiment in a line: IMP-1 metallo-beta-lactamase inhibitors, dose response, selectivity assay for VIM-2 inhibitor project, biochemical, epi-absorbance (AID 1920).
Assay [8] concerns the target T2, Beta-lactamase. The assay is described as follows: […] counterscreen for selective VIM-2 inhibitors: dose response biochemical high throughput screening assay to identify inhibitors of IMP-1 metallo-beta-lactamase.
A short description of assay [9]: Luminescence Cell-Based Dose Retest to Confirm Inhibitors of Cancer Stem Cells. [Related pubchem assays (depositor defined):AID2717, AID2721]. It is filed as functional. As to conditions: Homo sapiens.
The nature of assay [10]: cytotoxicity in NIH3T3 fibroblasts, dose response, cytotoxicity control for HSP40 inhibitor project, cell-based, CellTiter-Glo luminescence, cherry-pick, set 2 (AID 624265). Format: functional.
The subject of the next assay is Vero. The assay is described as follows: Vero cell toxicity, dose response, cytotoxicity control, plate reader, cherry-pick samples (AID 687020). Format: functional, cell-based. Particulars: Chlorocebus sabaeus.
The test system of a further assay is A549. The assay is described as follows: A549 cell toxicity, dose response, cytotoxicity control, plate reader, cherry-pick samples (AID 687028). Format: functional, cell-based. As to conditions: Homo sapiens.
Assay [11] deals with T3, Matrix metalloproteinase-14 (Homo sapiens, UniProt P50281). The experiment in a line: SAR confirmation of uHTS hits for a small molecule inhibitors of MT1-MMP activation in a fluorescence assay. Format: functional.
Assay [12] has as its target T3, Matrix metalloproteinase-14. The experiment in a line: Dose Response confirmation of uHTS hits for a small molecule inhibitors of MT1-MMP activation in a fluorescence assay set 2. It is filed as functional.
Assay [13] concerns the target 26S proteasome non-ATPase regulatory subunit 14 (Homo sapiens, UniProt O00487). The assay is described as follows: inhibition of proteasome subunit RPN11 – biochemical, fluorescence polarization, uHTS hits, confirmation (AID 602368). It is filed as functional. On the technique in general: Fluorescence polarisation rises when a labelled molecule tumbles more slowly, as on binding a larger partner.

The target of assay [14] is 72 kDa type IV collagenase (Homo sapiens, UniProt P08253). The assay is described as follows: Dose Response validation of uHTS RPN11 inhibitor hits using a MMP-2 Fluorescence assay. It is filed as functional.
Chain of 72 kDa type IV collagenase (P08253 whole entry): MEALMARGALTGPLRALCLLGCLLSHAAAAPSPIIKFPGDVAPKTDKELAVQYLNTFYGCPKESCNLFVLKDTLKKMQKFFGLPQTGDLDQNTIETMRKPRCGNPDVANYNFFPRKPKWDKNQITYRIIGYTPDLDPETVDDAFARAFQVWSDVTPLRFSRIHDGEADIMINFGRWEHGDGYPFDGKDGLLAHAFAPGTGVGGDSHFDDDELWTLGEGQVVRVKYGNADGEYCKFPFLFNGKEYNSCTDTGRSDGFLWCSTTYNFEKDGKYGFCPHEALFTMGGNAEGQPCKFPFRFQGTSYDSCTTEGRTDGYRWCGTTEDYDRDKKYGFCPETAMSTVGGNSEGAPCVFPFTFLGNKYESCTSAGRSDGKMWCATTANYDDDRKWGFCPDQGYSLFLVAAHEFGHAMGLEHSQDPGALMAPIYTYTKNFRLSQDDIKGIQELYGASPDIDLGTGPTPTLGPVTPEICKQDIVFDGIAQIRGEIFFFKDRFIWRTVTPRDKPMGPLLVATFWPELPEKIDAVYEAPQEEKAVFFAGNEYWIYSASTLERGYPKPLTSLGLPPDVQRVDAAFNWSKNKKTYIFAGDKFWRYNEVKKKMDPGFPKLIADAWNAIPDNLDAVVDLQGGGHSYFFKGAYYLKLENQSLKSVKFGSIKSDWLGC
The next assay has as its target Prothrombin (Bos taurus, UniProt P00735). The assay is described as follows: thrombin inhibition, dose response, biochemical, fluorescence polarization, uHTS hits (AID 602369). Format: functional.
In assay [15] the target is Arf-GAP with SH3 domain, ANK repeat and PH domain-containing protein 1 (Homo sapiens, UniProt Q9ULH1). Format: functional.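 Further: biochemical fluorescence polarization dose–response screen measuring inhibition of ASAP1; ASAP1 GAP domain stimulating GTP hydrolysis by truncated human ARF1.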
Assay [16] addresses Long-chain-fatty-acid--AMP ligase FadD28 (Mycobacterium tuberculosis, UniProt P9WQ59). The experiment in a line: Fluorescence polarization aasay to screen for inhibitors that compete for the binding of FadD28 to a bisubstrate Measured in Biochemical System Using Plate Reader - 2147-01_Inhibitor_Dose_CherryPick_Activity. Format: functional, Mycobacterium tuberculosis H37Rv.
A short description of assay [17]: HEK293T cytotoxicity, dose response, cytotoxicity control for miR-122 modulator project, cell-based, inhibitor set, cherry-pick, set 2 (AID 720697). It is filed as functional.
The target of a further assay is Beta-galactosidase (Escherichia coli, UniProt Q8VNN2). The assay is described as follows: Dose response counterscreen for EBI2 assay utilizing the enzyme, b-galactosidase. It is filed as functional.
The next assay addresses Melanocortin receptor 4 (Homo sapiens, UniProt P32245). It is filed as functional, cell-based.
Assay [18] has as its target T4, Sentrin-specific protease 1 (Homo sapiens, UniProt Q9P0U3). The assay is described as follows: potency of human SENP1 inhibitors, dose response, biochemical, kinetic FRET (AID 651697). As to conditions: read-out: IC50_Mean. Format: functional.
Assay [19] has as its target T4, Sentrin-specific protease 1. The assay is described as follows: Dose response confirmation of small molecule inhibitors of the catalytic domain of the SUMO protease, SENP1 in a FRET assay. It is filed as functional. Particulars: read-out: IC50_Mean.
In assay [20] the target is DNA repair and recombination protein RAD54-like (Homo sapiens, UniProt Q92698). The assay is described as follows: inhibitors of human RAD54 branch migration, confirmation, biochemical, fluorescence, cherry-picked samples, dose series (AID 651657). Format: functional.
The target in assay [21] is T5, Mitochondrial peptide methionine sulfoxide reductase (Bos taurus, UniProt P54149).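 Further: absorbance read-out, biochemical high-throughput dose-response screen for MsrA inhibitors, confirmatory; recombinant bovine MsrA coupled to E. coli TrxB with NADPH and selenocystamine; potency is for inhibitors of MsrA activity on DMSO substrate.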
T5 sequence (P54149 whole entry): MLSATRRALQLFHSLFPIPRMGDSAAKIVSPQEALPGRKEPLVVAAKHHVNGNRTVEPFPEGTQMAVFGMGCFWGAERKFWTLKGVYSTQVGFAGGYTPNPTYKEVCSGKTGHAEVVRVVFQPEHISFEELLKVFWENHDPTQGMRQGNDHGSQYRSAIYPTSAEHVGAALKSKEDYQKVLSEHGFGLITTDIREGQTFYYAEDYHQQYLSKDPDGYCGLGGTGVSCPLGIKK
Format: functional.

In assay [22] the target is T6, Methionyl-tRNA synthetase, putative (Trypanosoma brucei brucei, UniProt Q38C91). It is filed as functional, Trypanosoma brucei brucei strain 927/4 GUTat10.1.
T6 sequence (Q38C91 whole entry): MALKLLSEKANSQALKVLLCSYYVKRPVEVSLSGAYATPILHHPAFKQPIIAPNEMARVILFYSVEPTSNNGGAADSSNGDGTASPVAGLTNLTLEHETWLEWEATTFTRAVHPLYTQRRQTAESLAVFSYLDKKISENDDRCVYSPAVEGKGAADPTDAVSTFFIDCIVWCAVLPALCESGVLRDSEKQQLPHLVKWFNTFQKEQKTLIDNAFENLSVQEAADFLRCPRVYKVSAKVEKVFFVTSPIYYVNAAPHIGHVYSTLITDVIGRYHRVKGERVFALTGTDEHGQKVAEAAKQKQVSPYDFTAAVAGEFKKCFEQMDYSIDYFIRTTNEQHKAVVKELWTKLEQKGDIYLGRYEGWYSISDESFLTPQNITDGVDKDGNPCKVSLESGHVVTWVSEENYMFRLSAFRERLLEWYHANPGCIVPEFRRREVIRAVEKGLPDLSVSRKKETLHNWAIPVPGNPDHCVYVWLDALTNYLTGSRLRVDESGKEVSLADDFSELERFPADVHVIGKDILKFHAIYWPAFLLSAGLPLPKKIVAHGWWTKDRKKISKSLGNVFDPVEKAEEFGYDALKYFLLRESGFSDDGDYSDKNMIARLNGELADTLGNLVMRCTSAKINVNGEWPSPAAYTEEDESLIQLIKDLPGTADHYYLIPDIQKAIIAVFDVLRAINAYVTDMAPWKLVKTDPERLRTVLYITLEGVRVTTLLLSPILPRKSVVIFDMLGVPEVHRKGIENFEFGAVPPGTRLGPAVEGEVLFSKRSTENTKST
The nature of assay [23]: Counterscreen for inhibitors of Trypanosoma brucei methionyl tRNA synthetase (MetRS): Luminescence-based cell-based high throughput dose response assay to identify compounds that are cytotoxic to Jurkat human T lymphocyte cells. It is filed as functional.
The target in assay [24] is T6, Methionyl-tRNA synthetase, putative. It is filed as functional, Trypanosoma brucei brucei strain 927/4 GUTat10.1. This is another data set of the same source.
Assay [25] concerns the target Adenosylmethionine-8-amino-7-oxononanoate aminotransferase (Mycobacterium tuberculosis, UniProt P9WQ81). The assay is described as follows: Mycobacterium tuberculosis BioA enzyme inhibitor Measured in Biochemical System Using Plate Reader - 2163-02_Inhibitor_Dose_CherryPick_Activity. Format: functional, Mycobacterium tuberculosis UT205.
Assay [26] concerns the target ADP-ribosylation factor GTPase-activating protein 1 (Rattus norvegicus, UniProt Q62848). The experiment in a line: Fluorescence polarization-based biochemical high throughput dose response screening assay to identify inhibitors of ADP-ribosylation factor GTPase activating protein 1 (ARFGAP1). Format: functional.
In another assay the target is Paired box protein Pax-8 (Homo sapiens, UniProt Q06710). The assay is described as follows: inhibitors of PAX8-driven TPO luciferase reporter, dose response, RMG-I cells, cherry-pick (AID 687027).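 Further: luciferase reporter driven by Pax8 target thyroperoxidase promoter measured by SteadyGlo luminescence.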 It is filed as functional, cell-based.
The nature of assay [27]: inhibitors of CMV-promoter luciferase reporter, dose response, counter-screen for Pax8 inhibitor project, cell-based, HEK293, luminescence, dry powder (AID 743020). It is filed as functional. On the technique in general: Reporter assays use an easily measured gene product as a stand-in for the process of interest.
Assay [28] can be described thus: NIH:OVCAR-3 ovarian cancer cell cytotoxicity, dose response, PAX8 inhibitor project, plate reader, dry powder samples (AID 743044). It is filed as functional, cell-based.
Assay [29] in a line: cytotoxicity in OVCAR8 ovarian cancer cells, dose response, PAX8 project, cell-based, plate reader, dry powder samples (AID 743197). It is filed as functional. Particulars: OVCAR-8.
A short description of assay [30]: A549 cell cytotoxicity, dose response, cytotoxicity control, plate reader, cherry-pick, antagonist series (AID 743412). It is filed as functional, cell-based.
A short description of assay [31]: LGR2 antagonists, dose response, cell-based, HEK293, CRE-luciferase reporter, cherry pick (AID 743342). Format: functional.
Assay [32] in a line: T. cruzi growth inhibition in host cells, dose response, cell-based, plate reader, dry powder, set 2 (AID 652275). It is filed as functional.

T2 sequence (Q79MP6 whole entry): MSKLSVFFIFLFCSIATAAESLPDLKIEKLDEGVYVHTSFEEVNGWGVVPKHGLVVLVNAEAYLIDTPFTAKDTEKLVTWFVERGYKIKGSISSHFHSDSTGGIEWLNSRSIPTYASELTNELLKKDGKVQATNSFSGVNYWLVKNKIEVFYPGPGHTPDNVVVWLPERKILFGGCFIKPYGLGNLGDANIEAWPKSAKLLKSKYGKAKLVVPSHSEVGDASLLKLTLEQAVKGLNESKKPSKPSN
T4 sequence (Q9P0U3 whole entry, the tested form may be a part): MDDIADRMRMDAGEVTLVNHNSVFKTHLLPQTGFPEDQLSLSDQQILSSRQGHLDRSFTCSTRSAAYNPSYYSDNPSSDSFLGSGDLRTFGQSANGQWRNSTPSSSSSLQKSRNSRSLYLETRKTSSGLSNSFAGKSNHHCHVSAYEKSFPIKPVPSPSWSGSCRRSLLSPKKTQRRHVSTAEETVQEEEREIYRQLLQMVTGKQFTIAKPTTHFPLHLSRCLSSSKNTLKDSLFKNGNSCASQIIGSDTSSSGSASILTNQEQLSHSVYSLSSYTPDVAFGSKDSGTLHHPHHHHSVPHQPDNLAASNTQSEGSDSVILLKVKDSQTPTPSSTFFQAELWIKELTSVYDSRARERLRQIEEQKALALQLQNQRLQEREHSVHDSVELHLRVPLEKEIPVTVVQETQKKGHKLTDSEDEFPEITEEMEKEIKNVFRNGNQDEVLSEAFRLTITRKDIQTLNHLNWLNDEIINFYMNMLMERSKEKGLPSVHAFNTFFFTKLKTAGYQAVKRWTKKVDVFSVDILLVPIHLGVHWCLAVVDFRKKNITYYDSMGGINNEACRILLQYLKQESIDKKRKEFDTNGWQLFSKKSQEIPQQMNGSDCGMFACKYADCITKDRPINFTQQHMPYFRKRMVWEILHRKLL
Chain of Adenosylmethionine-8-amino-7-oxononanoate aminotransferase (P9WQ81 whole entry): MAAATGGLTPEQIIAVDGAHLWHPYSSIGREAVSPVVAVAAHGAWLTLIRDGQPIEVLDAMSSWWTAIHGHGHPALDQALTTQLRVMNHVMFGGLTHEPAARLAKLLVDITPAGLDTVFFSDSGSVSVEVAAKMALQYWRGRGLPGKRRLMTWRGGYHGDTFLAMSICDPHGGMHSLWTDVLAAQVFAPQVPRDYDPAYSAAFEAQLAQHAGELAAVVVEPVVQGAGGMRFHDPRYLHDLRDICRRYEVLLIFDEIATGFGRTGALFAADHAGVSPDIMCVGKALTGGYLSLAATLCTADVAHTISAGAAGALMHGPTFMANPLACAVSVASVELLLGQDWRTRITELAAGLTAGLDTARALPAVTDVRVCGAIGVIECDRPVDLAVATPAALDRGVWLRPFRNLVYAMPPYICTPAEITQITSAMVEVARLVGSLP
Chain of 26S proteasome non-ATPase regulatory subunit 14 (O00487 whole entry): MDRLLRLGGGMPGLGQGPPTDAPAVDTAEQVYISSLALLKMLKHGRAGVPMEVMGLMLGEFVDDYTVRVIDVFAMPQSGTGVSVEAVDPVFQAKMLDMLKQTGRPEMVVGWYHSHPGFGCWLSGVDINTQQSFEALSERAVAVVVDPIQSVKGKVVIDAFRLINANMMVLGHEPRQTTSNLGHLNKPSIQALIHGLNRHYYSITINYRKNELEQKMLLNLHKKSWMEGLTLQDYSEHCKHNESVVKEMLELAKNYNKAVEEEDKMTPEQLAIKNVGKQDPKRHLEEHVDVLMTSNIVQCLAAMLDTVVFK
Chain of Beta-lactamase (Salmonella choleraesuis (strain SC-B67), UniProt Q5J463) (Q5J463 whole entry): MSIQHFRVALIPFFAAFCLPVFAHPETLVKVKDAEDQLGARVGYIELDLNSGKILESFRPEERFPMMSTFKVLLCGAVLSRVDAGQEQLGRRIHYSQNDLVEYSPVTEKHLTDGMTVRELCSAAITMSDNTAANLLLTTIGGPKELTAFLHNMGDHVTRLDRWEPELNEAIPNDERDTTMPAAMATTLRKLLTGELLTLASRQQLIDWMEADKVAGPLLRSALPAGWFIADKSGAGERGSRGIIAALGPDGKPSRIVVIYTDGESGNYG
Chain of ADP-ribosylation factor GTPase-activating protein 1 (Q62848 whole entry): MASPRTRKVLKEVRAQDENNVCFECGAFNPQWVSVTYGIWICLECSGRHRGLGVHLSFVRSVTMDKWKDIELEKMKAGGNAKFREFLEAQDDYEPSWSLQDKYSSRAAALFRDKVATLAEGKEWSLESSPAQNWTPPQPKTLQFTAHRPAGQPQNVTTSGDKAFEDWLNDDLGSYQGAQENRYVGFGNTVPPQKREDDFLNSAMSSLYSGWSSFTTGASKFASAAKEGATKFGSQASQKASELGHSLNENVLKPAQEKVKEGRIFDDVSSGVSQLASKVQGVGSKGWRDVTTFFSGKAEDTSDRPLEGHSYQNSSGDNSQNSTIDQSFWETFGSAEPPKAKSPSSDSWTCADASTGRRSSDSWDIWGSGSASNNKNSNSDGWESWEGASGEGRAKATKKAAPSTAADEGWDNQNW
Chain of Melanocortin receptor 4 (P32245 whole entry): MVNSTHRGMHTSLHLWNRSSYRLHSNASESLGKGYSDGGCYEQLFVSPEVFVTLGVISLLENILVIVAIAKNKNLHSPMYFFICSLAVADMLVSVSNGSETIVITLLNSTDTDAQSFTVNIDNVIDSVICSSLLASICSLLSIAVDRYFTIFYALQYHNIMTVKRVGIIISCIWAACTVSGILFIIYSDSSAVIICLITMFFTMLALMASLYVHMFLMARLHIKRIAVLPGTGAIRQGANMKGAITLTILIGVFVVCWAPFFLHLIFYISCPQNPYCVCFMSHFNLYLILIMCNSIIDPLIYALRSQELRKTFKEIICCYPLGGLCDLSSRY
Chain of Long-chain-fatty-acid--AMP ligase FadD28 (P9WQ59 whole entry): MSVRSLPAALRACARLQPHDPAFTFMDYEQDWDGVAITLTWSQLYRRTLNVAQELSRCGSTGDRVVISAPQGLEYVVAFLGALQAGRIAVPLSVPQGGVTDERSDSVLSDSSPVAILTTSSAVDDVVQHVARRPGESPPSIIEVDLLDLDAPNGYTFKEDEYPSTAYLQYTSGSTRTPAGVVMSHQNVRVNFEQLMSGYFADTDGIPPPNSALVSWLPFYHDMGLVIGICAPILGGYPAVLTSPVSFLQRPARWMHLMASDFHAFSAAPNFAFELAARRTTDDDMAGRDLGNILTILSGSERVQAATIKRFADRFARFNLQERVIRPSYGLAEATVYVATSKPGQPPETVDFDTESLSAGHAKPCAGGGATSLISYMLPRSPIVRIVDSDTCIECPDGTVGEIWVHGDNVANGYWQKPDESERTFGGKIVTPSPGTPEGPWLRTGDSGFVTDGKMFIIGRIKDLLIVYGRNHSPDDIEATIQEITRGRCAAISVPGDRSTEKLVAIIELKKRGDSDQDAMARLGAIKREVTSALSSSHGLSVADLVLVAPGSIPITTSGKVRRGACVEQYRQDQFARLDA

For `CCN=C(S)N(CCCN(CC)CC)Cc1cc2cc3c(cc2nc1O)OCO3`, the AC50 (commonly the concentration at which the activity in the assay is half-maximal) in assay [1] was 15.7 µM (active).

For the molecule `O=C(CCSCc1cccc(F)c1)NCCc1ccccc1`, the EC50 in [2] and in [5] was > 29.9 µM (inactive) each time. Also, the results for the IC50 in assay [3] and in assay [4] were 7.43 µM (active) and > 29.9 µM (inactive), respectively.

As for `Fc1ccccc1-c1nnc(S)n1Cc1ccccc1`, the IC50 on Beta-lactamase [6], at Beta-lactamase [7] and at Beta-lactamase [8] was > 59.6 µM (inactive) throughout.

For the molecule `COc1ccc(-c2oc3ccccc3c2C#Cc2cncn2C)cc1`, the AC50 in assay [9] is 2.05 µM (active). The AbsAC35_uM in assay [10] is 54.48 µM.

As for `Cc1cccc(C(=O)N2CCC(=O)N([C@H](COCc3ccc(Cl)cc3)Cc3ccccc3)CC2)c1`, the AC50 in the assay with Vero is 33.6 µM (active); in the assay with A549, 28.5 µM (active).

Consider `CN1/C(=C\C(=O)c2cncc(Br)c2)C(C)(C)c2ccccc21`, for which the IC50 in assay [11] is 66.5 µM (inactive); in assay [12] it was 23.7 µM (inactive).

As to `N#Cc1ccc(-c2ccc(OCC(=O)NCC(=O)Nc3ccc(F)c(F)c3F)cc2)cc1`, the IC50 in [13] is 12.7 µM (active); in assay [14], > 100 µM (inactive); on Prothrombin, > 100 µM (inactive); in assay [15], 26.1 µM (inactive).

With `COc1cccc(-n2nnnc2SCC(=O)Nc2cccc(C)n2)c1`, the half-maximal activity concentration (AC50) in assay [16] was 50.1 µM (active).

Turning to `CC1CCN(CCc2nc3cc(NC(=O)Nc4ccccc4)ccc3n2C)CC1`, the AC50 in assay [17] was 2.74 µM (active).

For `CCOC(=O)C1CCN(C2=NC(=O)/C(=C/c3ccc(Cl)cc3)S2)CC1`, on Beta-galactosidase, the IC50 is > 80 µM (inactive).

As to `COc1ccc(-c2ccc3c(c2)S(=O)(=O)c2cccc(C(=O)NCc4cc(C)oc4C(F)(F)F)c2C3=O)cc1OC`, the EC50 – broadly, the concentration that produces a half-maximal response – at Melanocortin receptor 4 is > 89.2 µM (inactive). Further, the IC50 is 15.8 µM (active) in [18] and 13.3 µM (active) in [19].

Take `O=C(COc1ccc2c(c1)oc(=O)c1ccccc12)NCCCN1CCOCC1`: in assay [20], the AC50 was 29.9 µM (active).

Regarding `C/C(=N\Nc1ccc(S(N)(=O)=O)cc1[N+](=O)[O-])c1ccc2c(c1)OCO2`, the IC50 in [21] was 155 µM (inactive).

As for `Cc1c(NS(=O)(=O)c2cccc(C(=O)NCc3cccc(Cl)c3)c2)c(=O)n(-c2ccccc2)n1C`, the IC50 is 119 µM (inactive) in [22], 83.3 µM (inactive) in assay [23] and 21.7 µM (inactive) in assay [24].

Consider `COc1cccc(NC(=O)N2C[C@H](O)COC[C@@H]3O[C@@H](CC(=O)N(C)C)CC[C@H]32)c1`, for which the concentration at half-maximal activity (AC50) in assay [25] was 0.596 µM (active).

Consider `CC1CC(C)CN(C(=O)COC(=O)c2cn(C)c3ccccc23)C1` (stereo not drawn), for which the IC50 in assay [26] is 28.4 µM (inactive).

`C[C@H]1CN([C@@H](C)CO)S(=O)(=O)c2ccc(C#CC3CCCC3)cc2O[C@@H]1CN(C)Cc1cccnc1`: the AC50 at Paired box protein Pax-8 was 14.4 µM (active); in assay [27] it was 39.4 µM (active); in assay [28], 37.1 µM (active); in [29], > 70 µM (inactive).

In the case of `C[C@H](CO)N1C[C@H](C)[C@H](CN(C)C(=O)Nc2ccc3c(c2)OCO3)OCCCC[C@H](C)Oc2ccc(NC(=O)C3CCCCC3)cc2C1=O`, the AC50 in assay [30] is 41 µM (active); in assay [31], 2.21 µM (active).

As to `C[C@@H](CO)N1CC[C@H](CNCc2ccc(Oc3ccccc3)cc2)Oc2c(NC(=O)c3ccncc3)cccc2C1=O`, the AC50 in assay [32] is 0.0179 µM (active).
